From ChEMBL document CHEMBL4346692, “Anti-PqsR compounds as next-generation antibacterial agents against Pseudomonas aeruginosa: A review” (Eur J Med Chem, 2019)

Experiments:
[1] = target: T1, 2-heptyl-4(1H)-quinolone synthase PqsD (Pseudomonas aeruginosa, UniProt A0A0C7ACN7); experiment: Inhibition of Pseudomonas aeruginosa PqsD
T1 sequence (A0A0C7ACN7 whole entry): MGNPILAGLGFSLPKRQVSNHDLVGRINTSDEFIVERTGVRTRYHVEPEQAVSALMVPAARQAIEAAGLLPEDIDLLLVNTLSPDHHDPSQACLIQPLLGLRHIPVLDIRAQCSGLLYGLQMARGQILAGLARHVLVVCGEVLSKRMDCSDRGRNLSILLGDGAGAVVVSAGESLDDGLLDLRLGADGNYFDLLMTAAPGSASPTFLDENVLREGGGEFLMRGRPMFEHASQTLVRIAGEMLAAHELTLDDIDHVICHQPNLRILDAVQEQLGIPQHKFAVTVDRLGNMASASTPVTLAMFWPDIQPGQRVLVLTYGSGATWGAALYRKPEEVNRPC

[2] = target: T2, Transcriptional regulator MvfR (Pseudomonas aeruginosa PA14, UniProt A0A072ZLE6); experiment: Inhibition of Pseudomonas aeruginosa PqsR
T2 sequence (A0A072ZLE6 whole entry): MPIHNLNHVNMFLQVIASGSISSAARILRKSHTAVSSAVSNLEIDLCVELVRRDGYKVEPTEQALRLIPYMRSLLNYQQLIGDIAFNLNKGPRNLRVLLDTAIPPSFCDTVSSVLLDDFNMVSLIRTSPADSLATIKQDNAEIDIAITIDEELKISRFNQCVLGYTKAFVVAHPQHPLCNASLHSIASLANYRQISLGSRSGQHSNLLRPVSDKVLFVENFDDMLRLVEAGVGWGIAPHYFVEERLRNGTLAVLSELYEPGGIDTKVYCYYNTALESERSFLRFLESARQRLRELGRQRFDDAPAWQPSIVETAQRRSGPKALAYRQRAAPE

[3] = Antagonist activity at His6 -tagged Pseudomonas aeruginosa PqsR C87 mutant expressed in Escherichia coli BL21 (DE3) cells by surface plasma resonance method
[4] = Half life in rat hepatic microsomes at 1 uM in presence of NADPH by UPLC-MS/MS analysis; type: ADME, Microsome; settings: liver microsomes
[5] = Half life in human hepatic microsomes at 1 uM in presence of NADPH by UPLC-MS/MS analysis; type: ADME, Microsome; settings: liver microsomes
[6] = Agonist activity at Pseudomonas aeruginosa pqsA delta frame deletion mutant
[7] = target: T2, Transcriptional regulator MvfR; experiment: Antagonist activity at His6 -tagged Pseudomonas aeruginosa PqsR CBD domain expressed in Escherichia coli Rosetta 2 (DE3)
[8] = Binding affinity to Pseudomonas aeruginosa His6/Sumo-tagged PqsR C87 mutant expressed in Escherichia coli BL21 (DE3) […] cells by surface plasma resonance method
[9] = target: T3, Transcriptional regulator MvfR (Pseudomonas aeruginosa PA14) (UniProt A0A072ZLE6); experiment: Inhibition of Pseudomonas aeruginosa PqsR relative to control; settings: concentration not given here
T3 sequence (whole entry): T2 sequence (A0A072ZLE6 whole entry)

`CS(=O)(=O)c1nccc(-n2cnnn2)n1` showed an IC50 [1] of 21 µM and an IC50 [2] of 15 µM.

`CC(C)(C)c1ccc(C(=O)NO)cc1` gave an IC50 [3] of 23.6 µM.

For `O=CN1N=C(c2ccccc2)CC1c1cccc(Nc2ccnc3cc(Cl)ccc23)c1` (centres undefined), the half-life at 1 µM [4] was under 30 min and the half-life at 1 µM [5] was under 30 min.

In the case of `CCCCCCCc1[nH]c2ccccc2c(=O)c1O`, the EC50 [6] is reported as 1.9 µM.

Work on `CCCCCCCCCc1nc2cc(Cl)ccc2c(=O)n1N` yielded an IC50 [7] of 5 µM.

In the case of `CCCCCCCCCc1nc2cc(F)c(F)cc2c(=O)n1N`, the IC50 [7] is reported as 1.2 µM.

Molecule `CCCCCCCCCc1nc2cc(F)ccc2c(=O)n1OC` has an EC50 [6] of 2.2 µM.

Work on `CCCCCCCc1cc(=O)c2cc(C(F)(F)F)ccc2[nH]1` yielded a Kd [8] of 0.057 µM.

In the case of `CCCCCCS(=O)(=O)c1nccc(-n2ccnn2)n1`, the IC50 [1] is reported as 1.7 µM, the inhibition [9] is reported as 47% and the IC50 [2] is reported as 50 µM.

With `CCCCCCCCCc1nc2cc(F)ccc2c(=O)n1N` the IC50 [7] was 3.9 µM.
